Test results published in patent publication US11376253B2, “Agent for treating nocturnal pollakiuria” (KYORIN PHARMACEUTICAL CO., LTD., priority 2017, dated 2022).

Columns and labels:
Japanese OAB patients [1] = experiment: twelve-week randomized, double-blind, placebo-controlled, parallel-group study of nocturnal pollakiuria in OAB patients; assay type: in vivo, human; conditions: for Difference in amount of change (vibegron group − placebo group), least squares mean (95% confidence interval) / Amount of change from baseline in the frequency of urination at night, least squares mean (95% confidence interval): 12 weeks
Experimental: The efficacy of vibegron on nocturnal pollakiuria in OAB patients was evaluated in a twelve-week randomized, double-blind, placebo-controlled, parallel-group study.
Japanese OAB patients received either vibegron (50 mg/day or 100 mg/day) or a placebo for 12 weeks. Both 50 mg/day of vibegron and 100 mg/day of vibegron were orally administered in the form of a tablet once daily after breakfast. […] There was no difference among the dose groups in terms of subject background such as gender, age, and BMI.
The therapeutic effect of vibegron on nocturnal pollakiuria in OAB patients was evaluated based on an average frequency of urination at night, which was determined by using a urination diary to investigate the frequency of urination for three days prior to visits. In this context, nighttime is defined as the period of time between when one goes to bed to sleep and when one wakes up and gets out of bed. Constrained longitudinal data analysis model (cLDA) was used for statistical analysis to estimate the least squares mean and the two-sided 95% confidence interval of each group. Furthermore, the cLDA method was used to estimate the least squares mean difference at evaluation times between the 50 mg or 100 mg vibegron groups and the placebo group and the two-sided 95% confidence intervals thereof, thereby testing the least squares mean difference compared with placebo.
Numerical values in Table 2 represent the average of the frequency of urination at night at baseline (before drug administration), the least squares mean of the amount of change from baseline in the average frequency of urination at night after 12 weeks of administration, the least squares mean of difference in the amount of change between the vibegron groups and the placebo group, and p-values. In this regard, when the amount of change is less than 0, the smaller value represents a greater therapeutic effect. […] “Patients whose frequency of urination at night is not zero at baseline” are represented as a main subject population, and other “patients whose frequency of urination at night is one or more times at baseline” and “patients whose frequency of urination at night is two or more times at baseline” are represented as populations who have more prominent symptoms of nocturnal pollakiuria. FIG. 1 is a graph in which the numerical values represent the least squares mean (ΔLSmean) of the amount of change from baseline in the frequency of urination at night after 12 weeks of administration.

Japanese OAB patients [2] = experiment: as above; assay type: in vivo, human; conditions: for Least squares mean of the amount of change from baseline in the first voided volume at night / Least squares mean of the amount of change from baseline in the time to first awakening (HUS) / Least squares mean of the amount of change from baseline in the single voided volume at night: patients with frequency of urination at night one or more times per day at baseline; for Least squares mean of the amount of change from baseline in the first voided volume at night: placebo 24.80 mL; for Least squares mean of the amount of change from baseline in the time to first awakening (HUS): placebo 65.08 minutes; for Least squares mean of the amount of change from baseline in the single voided volume at night: placebo +19.42 mL
[3] = 50 mg and 100 mg groups, patients with nocturnal pollakiuria with nocturnal polyuria, one or more times per day at baseline
[4] = 50 mg/day oral, patients whose frequency of urination at night is two or more times at baseline
[5] = 100 mg/day oral, patients whose frequency of urination at night is not zero at baseline
[6] = 50 mg and 100 mg groups, patients with nocturnal pollakiuria without nocturnal polyuria, one or more times per day at baseline

O=C(Nc1ccc(C[C@@H]2CC[C@H]([C@H](O)c3ccccc3)N2)cc1)[C@@H]1CCc2nccc(=O)n21 [Vibegron, (6S)—N-[4-({(2S,5R)-5-[(R)-hydroxy(phenyl)methyl]pyrrolidin-2-yl}methyl)phenyl]-4-oxo-4,6,7,8-tetrahydropyrrolo[1,2-a]pyrimidine-6-carboxamide]
Frequency of urination at night compared with the placebo group (Japanese OAB patients [1]; [3]): reduced in the 50 mg vibegron group and the 100 mg vibegron group compared with the placebo group but the difference was not significant | Difference in amount of change (vibegron group − placebo group), least squares mean (95% confidence interval) (Japanese OAB patients [1]; 50 mg/day oral, patients whose frequency of urination at night is not zero at baseline): −0.11 (−0.21, −0.02) | Difference in amount of change (vibegron group − placebo group), least squares mean (95% confidence interval) (Japanese OAB patients [1]; 50 mg/day oral, patients whose frequency of urination at night is one or more times at baseline): −0.16 (−0.28, −0.04) | Amount of change from baseline in the frequency of urination at night, least squares mean (95% confidence interval) (Japanese OAB patients [1]; [4]): −1.00 (−1.17, −0.83) | Difference in amount of change (vibegron group − placebo group), least squares mean (95% confidence interval) (Japanese OAB patients [1]; [4]): −0.15 (−0.38, 0.08) | Amount of change from baseline in the frequency of urination at night, least squares mean (95% confidence interval) (Japanese OAB patients [1]; [5]): −0.62 (−0.70, −0.55) | Difference in amount of change (vibegron group − placebo group), least squares mean (95% confidence interval) (Japanese OAB patients [1]; [5]): −0.16 (−0.25, −0.06) | Difference in amount of change (vibegron group − placebo group), least squares mean (95% confidence interval) (Japanese OAB patients [1]; 100 mg/day oral, patients whose frequency of urination at night is one or more times at baseline): −0.21 (−0.33, −0.09) | Amount of change from baseline in the frequency of urination at night, least squares mean (95% confidence interval) (Japanese OAB patients [1]; 100 mg/day oral, patients whose frequency of urination at night is two or more times at baseline): −1.16 (−1.34. −0.99) | Single voided volume at night compared with the placebo group (Japanese OAB patients [2]; [3]): significantly increased | Frequency of urination at night compared with the placebo group (Japanese OAB patients [2]; [6]): significantly reduced | Single voided volume at night compared with the placebo group (Japanese OAB patients [2]; [6]): significantly increased | Amount of change from baseline in the frequency of urination at night, least squares mean (95% confidence interval) (Japanese OAB patients [2]; 50 mg/day oral, 12 weeks, patients whose frequency of urination at night is not zero at baseline): −0.58 (−0.65, −0.51) | Amount of change from baseline in the frequency of urination at night, least squares mean (95% confidence interval) (Japanese OAB patients [2]; 50 mg/day oral, 12 weeks, patients whose frequency of urination at night is one or more times at baseline): −0.74 (−0.82, −0.65) | Least squares mean of the amount of change from baseline in the first voided volume at night (Japanese OAB patients [2]; 50 mg/day, 12 weeks): 48.71 mL | Least squares mean of the amount of change from baseline in the time to first awakening (HUS) (Japanese OAB patients [2]; 50 mg/day, 12 weeks): 81.79 min | Least squares mean of the amount of change from baseline in the single voided volume at night (Japanese OAB patients [2]; 50 mg/day, 12 weeks): +47.85 mL | Amount of change from baseline in the frequency of urination at night, least squares mean (95% confidence interval) (Japanese OAB patients [2]; 100 mg/day oral, 12 weeks, patients whose frequency of urination at night is one or more times at baseline): −0.78 (−0.87, −0.70) | Difference in amount of change (vibegron group − placebo group), least squares mean (95% confidence interval) (Japanese OAB patients [2]; 100 mg/day oral, 12 weeks, patients whose frequency of urination at night is two or more times at baseline): −0.31 (−0.55, −0.08) | Least squares mean of the amount of change from baseline in the first voided volume at night (Japanese OAB patients [2]; 100 mg/day, 12 weeks): 71.42 mL | Least squares mean of the amount of change from baseline in the time to first awakening (HUS) (Japanese OAB patients [2]; 100 mg/day, 12 weeks): 90.95 min | Least squares mean of the amount of change from baseline in the single voided volume at night (Japanese OAB patients [2]; 100 mg/day, 12 weeks): +58.14 mL
